# In patent US10618935B2, “Antibody-drug conjugate (ADC) and method for forming the same” (Industrial Technology Research Institute, priority 2015, dated 2020):
# Square brackets hold non-standard residues; d marks the D form. Peptide text beside a SMILES is read from it. * marks the point of attachment. Dolaproine = CO[C@@H]([C@@H]1CCCN1)[C@@H](C)C(=O)O; Dil = CC[C@H](C)[C@H](NC)[C@@H](CC(=O)O)OC; X2 = C[C@@H](N*)[C@@H](O)c1ccccc1; NMeV = CN[C@H](C(=O)O)C(C)C
# How the values were obtained:
# [1] = Body weight and clinical symptoms in the tumor growth inhibition test; conditions: FIG. 20
# Method: (§1) 1×10^6 of FaDu cells were subcutaneous injected to C.B-17 SCID mice at Day 0. The length and width of the tumor were measured and the tumor size was calculated by (length×width×width×½) (mm^3) and recorded. […] Tumor growth and body weight of the mice were observed twice every week.
# FaDu cells = assay: Tumor growth inhibition test, FaDu subcutaneous tumor in C.B-17 SCID mice; assay type: in vivo; conditions: Day 8-29; 0.1 mg/kg intravenously once at Day 8; n=6
# Method: as §1
compound,measurement,setting,value
CC[C@H](C)C([C@@H](CC(=O)N1CCC[C@H]1[C@H](OC)[C@@H](C)C(=O)NC(Cc1ccccc1)C(=O)NCCc1ccc(N)cc1)OC)N(C)C(=O)C(NC(=O)[C@H](C(C)C)N(C)C)C(C)C (stereo partly shown) [APEA-AF],weight loss or abnormal clinical symptoms after drug administration,[1],no weight losing or other significant abnormal clinical symptoms occurred
same,TGI (%) ± SEM,FaDu cells,11 ± 17%
CC[C@H](C)[C@@H]([C@@H](CC(=O)N1CCC[C@H]1[C@H](OC)[C@@H](C)C(=O)N[C@H](C)[C@@H](O)c1ccccc1)OC)N(C)C(=O)[C@@H](NC(=O)[C@@H](NC)C(C)C)C(C)C [MMAE] (H-[NMeV]V[Dil][Dolaproine]-X2),weight loss or abnormal clinical symptoms after drug administration,[1],no weight losing or other significant abnormal clinical symptoms occurred
same,TGI (%) ± SEM,FaDu cells,12 ± 6%
